Experimental data reported in PubChem BioAssay (NCI).
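Values below derive from 48-hour exposures of cells grown in 96-well plates, with endpoints linearly interpolated between the two concentrations bracketing the appropriate inhibition level. The concentration for full growth arrest is given as TGI.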

Experiments:
Assay in all cases: NCI tumour cell line growth inhibition, 48 h
SK-MEL-28 melanoma = tested on: SK-MEL-28 melanoma
OVCAR-8 ovarian = tested on: OVCAR-8 ovarian
T-47D breast = tested on: T-47D breast
SK-MEL-5 melanoma = tested on: SK-MEL-5 melanoma
LOX IMVI melanoma = tested on: LOX IMVI melanoma
M14 melanoma = tested on: M14 melanoma
BT-549 breast = tested on: BT-549 breast
OVCAR-4 ovarian = tested on: OVCAR-4 ovarian
UO-31 renal = tested on: UO-31 renal
ACHN renal = tested on: ACHN renal
HCT-116 colon = tested on: HCT-116 colon
HL-60(TB) leukemia = tested on: HL-60(TB) leukemia
A549 NSCLC = tested on: A549 NSCLC
K-562 leukemia = tested on: K-562 leukemia
IGROV1 ovarian = tested on: IGROV1 ovarian
U251 CNS = tested on: U251 CNS
SK-MEL-2 melanoma = tested on: SK-MEL-2 melanoma
SW-620 colon = tested on: SW-620 colon
NCI-H460 lung = tested on: NCI-H460 lung
RXF 393 renal = tested on: RXF 393 renal
786-0 renal = tested on: 786-0 renal
HOP-92 NSCLC = tested on: HOP-92 NSCLC
NCI-H226 lung = tested on: NCI-H226 lung
COLO 205 colon = tested on: COLO 205 colon
SF-268 CNS = tested on: SF-268 CNS
OVCAR-5 ovarian = tested on: OVCAR-5 ovarian
UACC-62 melanoma = tested on: UACC-62 melanoma
EKVX NSCLC = tested on: EKVX NSCLC
HCT-15 colon = tested on: HCT-15 colon
KM12 colon = tested on: KM12 colon
MDA-N = tested on: MDA-N
RPMI-8226 leukemia = tested on: RPMI-8226 leukemia
SNB-75 CNS = tested on: SNB-75 CNS
CAKI-1 renal = tested on: CAKI-1 renal
NCI-H23 lung = tested on: NCI-H23 lung
MOLT-4 leukemia = tested on: MOLT-4 leukemia
MCF7 breast = tested on: MCF7 breast
HT29 colon = tested on: HT29 colon
MALME-3M melanoma = tested on: MALME-3M melanoma
MDA-MB-231 breast = tested on: MDA-MB-231 breast
NCI/ADR-RES ovarian = tested on: NCI/ADR-RES ovarian
NCI-H522 lung = tested on: NCI-H522 lung
SN12C renal = tested on: SN12C renal
A498 renal = tested on: A498 renal
PC-3 prostate = tested on: PC-3 prostate
MDA-MB-435 = tested on: MDA-MB-435
HS 578T breast = tested on: HS 578T breast
SNB-19 CNS = tested on: SNB-19 CNS
CCRF-CEM leukemia = tested on: CCRF-CEM leukemia
UACC-257 melanoma = tested on: UACC-257 melanoma
SR leukemia = tested on: SR leukemia
TK-10 renal = tested on: TK-10 renal
SK-OV-3 ovarian = tested on: SK-OV-3 ovarian
SF-295 CNS = tested on: SF-295 CNS
DU-145 prostate = tested on: DU-145 prostate
SF-539 CNS = tested on: SF-539 CNS
OVCAR-3 ovarian = tested on: OVCAR-3 ovarian
HOP-62 NSCLC = tested on: HOP-62 NSCLC
HCC-2998 colon = tested on: HCC-2998 colon

SMILES: CC(C)(C)c1cc(C(C)(C)C)c(SSc2c(C(C)(C)C)cc(C(C)(C)C)c(O)c2O)c(O)c1O
- TGI (SK-MEL-28 melanoma): 33.8 µM
- TGI (OVCAR-8 ovarian): 47.7 µM
- TGI (T-47D breast): 27.2 µM
- TGI (SK-MEL-5 melanoma): 24 µM
- TGI (LOX IMVI melanoma): 23.6 µM
- TGI (M14 melanoma): 25.2 µM
- TGI (BT-549 breast): 28.3 µM
- TGI (OVCAR-4 ovarian): 15.5 µM
- TGI (UO-31 renal): 18.6 µM
- TGI (ACHN renal): 26.6 µM
- TGI (HCT-116 colon): 23.2 µM
- TGI (HL-60(TB) leukemia): 14.6 µM
- TGI (A549 NSCLC): 24 µM
- TGI (K-562 leukemia): 26.2 µM
- TGI (IGROV1 ovarian): 26.3 µM
- TGI (U251 CNS): 22.2 µM
- TGI (SK-MEL-2 melanoma): 28.4 µM
- TGI (SW-620 colon): 24 µM
- TGI (NCI-H460 lung): 13.2 µM
- TGI (RXF 393 renal): 47.2 µM
- TGI (786-0 renal): 19.2 µM
- TGI (HOP-92 NSCLC): 31.9 µM
- TGI (NCI-H226 lung): 35 µM
- TGI (COLO 205 colon): 27.5 µM
- TGI (SF-268 CNS): 24.7 µM
- TGI (OVCAR-5 ovarian): 31.3 µM
- TGI (UACC-62 melanoma): 18.8 µM
- TGI (EKVX NSCLC): 35.7 µM
- TGI (HCT-15 colon): 20.7 µM
- TGI (KM12 colon): 25.4 µM
- TGI (MDA-N): 23.9 µM
- TGI (RPMI-8226 leukemia): 32.1 µM
- TGI (SNB-75 CNS): 41.9 µM
- TGI (CAKI-1 renal): 23.7 µM
- TGI (NCI-H23 lung): 22.8 µM
- TGI (MOLT-4 leukemia): 10.4 µM
- TGI (MCF7 breast): 27.5 µM
- TGI (HT29 colon): 31.5 µM
- TGI (MALME-3M melanoma): 36 µM
- TGI (MDA-MB-231 breast): 28 µM
- TGI (NCI/ADR-RES ovarian): 70 µM
- TGI (NCI-H522 lung): 16.6 µM
- TGI (SN12C renal): 25.3 µM
- TGI (A498 renal): 27.5 µM
- TGI (PC-3 prostate): 28.5 µM
- TGI (MDA-MB-435): 17.2 µM
- TGI (HS 578T breast): > 100 µM
- TGI (SNB-19 CNS): 25.5 µM
- TGI (CCRF-CEM leukemia): 7.5 µM
- TGI (UACC-257 melanoma): 21.7 µM
- TGI (SR leukemia): 10.4 µM

SMILES: COc1cccc(/C=N/[N+](C)(C)C)c1O
- TGI (SK-MEL-28 melanoma): > 10 µM
- TGI (OVCAR-8 ovarian): > 10 µM
- TGI (T-47D breast): > 10 µM
- TGI (SK-MEL-5 melanoma): > 10 µM
- TGI (LOX IMVI melanoma): > 10 µM
- TGI (M14 melanoma): > 10 µM
- TGI (BT-549 breast): > 10 µM
- TGI (OVCAR-4 ovarian): > 10 µM
- TGI (UO-31 renal): > 10 µM
- TGI (ACHN renal): > 10 µM
- TGI (HCT-116 colon): > 10 µM
- TGI (HL-60(TB) leukemia): > 10 µM
- TGI (A549 NSCLC): > 10 µM
- TGI (K-562 leukemia): > 10 µM
- TGI (IGROV1 ovarian): > 10 µM
- TGI (U251 CNS): > 10 µM
- TGI (SK-MEL-2 melanoma): > 10 µM
- TGI (SW-620 colon): > 10 µM
- TGI (NCI-H460 lung): > 10 µM
- TGI (RXF 393 renal): > 10 µM
- TGI (786-0 renal): > 10 µM
- TGI (NCI-H226 lung): > 10 µM
- TGI (COLO 205 colon): > 10 µM
- TGI (SF-268 CNS): > 10 µM
- TGI (OVCAR-5 ovarian): > 10 µM
- TGI (TK-10 renal): > 10 µM
- TGI (UACC-62 melanoma): > 10 µM
- TGI (EKVX NSCLC): > 10 µM
- TGI (SK-OV-3 ovarian): > 10 µM
- TGI (HCT-15 colon): > 10 µM
- TGI (KM12 colon): > 10 µM
- TGI (SF-295 CNS): > 10 µM
- TGI (MDA-N): > 10 µM
- TGI (RPMI-8226 leukemia): > 10 µM
- TGI (SNB-75 CNS): > 10 µM
- TGI (CAKI-1 renal): > 10 µM
- TGI (NCI-H23 lung): > 10 µM
- TGI (MOLT-4 leukemia): > 10 µM
- TGI (MCF7 breast): > 10 µM
- TGI (HT29 colon): > 10 µM
- TGI (DU-145 prostate): > 10 µM
- TGI (MALME-3M melanoma): > 10 µM
- TGI (MDA-MB-231 breast): > 10 µM
- TGI (NCI/ADR-RES ovarian): > 10 µM
- TGI (NCI-H522 lung): > 10 µM
- TGI (SN12C renal): > 10 µM
- TGI (A498 renal): > 10 µM
- TGI (PC-3 prostate): > 10 µM
- TGI (SF-539 CNS): > 10 µM
- TGI (MDA-MB-435): > 10 µM
- TGI (OVCAR-3 ovarian): > 10 µM
- TGI (HS 578T breast): > 10 µM
- TGI (HOP-62 NSCLC): > 10 µM
- TGI (HCC-2998 colon): > 10 µM
- TGI (SNB-19 CNS): > 10 µM
- TGI (CCRF-CEM leukemia): > 10 µM
- TGI (UACC-257 melanoma): > 10 µM
